Data reported in ChEMBL document CHEMBL1145005 (J Med Chem, 2003).
Blank lines part the entries; values can stand above or below the compound they belong to.

Key:
[1] = target: Aldo-keto reductase family 1 member B1 (Homo sapiens, UniProt P15121); experiment: Inhibition of human recombinant Aldose reductase […]
Rattus norvegicus [2] = experiment: Aldose reductase inhibition activity in vivo by normalizing the elevated nerve fructose levels in sciatic nerve of acutely diabetic rat at 300 mg/kg; format: functional
[3] = pKa value of compound was determined; format: physicochemical
Rattus norvegicus [4] = experiment: Aldose reductase inhibition activity in vivo by normalizing the elevated nerve sorbitol levels in sciatic nerve of acutely diabetic rat at 300 mg/kg; format: functional
Rattus norvegicus [5] = experiment: Aldose reductase inhibition activity in vivo by normalizing the elevated nerve fructose levels in sciatic nerve of acutely diabetic rat at 10 mg/kg; format: functional
Rattus norvegicus [6] = organism: Rattus norvegicus; experiment: Effective dose to inhibit aldose reductase activity by normalizing the elevated nerve sorbitol levels in sciatic nerve of chronically diabetic rat
Rattus norvegicus [7] = experiment: Aldose reductase inhibition activity in vivo by normalizing the elevated nerve sorbitol levels in sciatic nerve of acutely diabetic rat at 10 mg/kg; format: functional
Rattus norvegicus [8] = organism: Rattus norvegicus; experiment: Effective dose to inhibit aldose reductase activity by normalizing the elevated nerve fructose levels in sciatic nerve of chronically diabetic rat
Rattus norvegicus [9] = experiment: Aldose reductase inhibition activity in vivo by normalizing the elevated nerve fructose levels in sciatic nerve of acutely diabetic rat at 20 mg/kg; format: functional
Rattus norvegicus [10] = experiment: Aldose reductase inhibition activity in vivo by normalizing the elevated nerve sorbitol levels in sciatic nerve of acutely diabetic rat at 20 mg/kg; format: functional
[11] = Maximum concentration of drug in plasma was determined at 2 mg/kg orally; format: ADME, organism-based; parameters: dose 2 mg/kg, route oral; settings: in vivo, po
[12] = Log P / Log D value was determined; format: physicochemical; settings: octanol/water
[13] = Partition coefficient (logP); format: physicochemical; settings: octanol/water
[14] = Plasma t1/2 of compound was determined in diabetic rat; format: ADME, organism-based
Rattus norvegicus [15] = experiment: Effective dose to inhibit aldose reductase activity by normalizing the elevated lens sorbitol levels in sciatic nerve of chronically diabetic rat orally; format: functional; settings: po
[16] = Log D value at pH 7.4; format: physicochemical; settings: buffer
Rattus norvegicus [17] = experiment: Effective dose to inhibit aldose reductase activity by normalizing the elevated lens fructose levels in sciatic nerve of chronically diabetic rat orally; format: functional; settings: po
[18] = Oral bioavailability in rat; format: ADME, organism-based; settings: in vivo, read-out: Bioavailability_oral
[19] = Dissociation constant was determined; format: physicochemical
Rattus norvegicus [20] = experiment: Aldose reductase inhibition activity in vivo by normalizing the elevated lens sorbitol levels in sciatic nerve of acutely diabetic rat at 20 mg/kg; settings: read-out: Inhibition

IC50 [1]: 1900 nM
Compound: Cc1ccc(S(=O)(=O)c2ccc(O)nn2)cc1

IC50 [1]: 210 nM
Compound: O=c1ccc(S(=O)(=O)c2ccccc2Br)n[nH]1

IC50 [1]: 140 nM
Compound: O=c1ccc(S(=O)(=O)c2ccc(Br)cc2F)n[nH]1

IC50 [1]: 600 nM
pKa [3]: 7.1
Compound: O=S(=O)(c1ccccc1)c1ccc(O)nn1
inhibition in vivo at 300 mg/kg (Rattus norvegicus [2]): 89%
inhibition in vivo at 300 mg/kg (Rattus norvegicus [4]): 95%

IC50 [1]: 190 nM
Compound: O=c1ccc(S(=O)(=O)c2ccc(Cl)cc2Cl)n[nH]1
inhibition in vivo at 10 mg/kg (Rattus norvegicus [5]): 73%
ED90 (Rattus norvegicus [6]): 5 mg/kg
inhibition in vivo at 10 mg/kg (Rattus norvegicus [7]): 95%
ED90 (Rattus norvegicus [8]): 20 mg/kg

IC50 [1]: 450 nM
Compound: O=S(=O)(c1ccc(O)nn1)c1nc2ccccc2s1

IC50 [1]: 150 nM
Compound: O=c1ccc(S(=O)(=O)c2cc3ccccc3o2)n[nH]1

IC50 [1]: 2000 nM
Compound: COc1ccc(S(=O)(=O)c2ccc(=O)[nH]n2)cc1

IC50 [1]: 170 nM
Compound: O=c1ccc(S(=O)(=O)c2ccccc2Cl)n[nH]1
inhibition in vivo at 20 mg/kg (Rattus norvegicus [9]): 68%
inhibition in vivo at 20 mg/kg (Rattus norvegicus [10]): 96%

IC50 [1]: 280 nM
Compound: O=c1ccc(S(=O)(=O)c2ccc(F)cc2Cl)n[nH]1
inhibition in vivo at 10 mg/kg (Rattus norvegicus [5]): 46%
inhibition in vivo at 10 mg/kg (Rattus norvegicus [7]): 91%

Cmax [11]: 9000 ng/mL
Log P/Log D [12]: 0.81
logP [13]: 3.05
IC50 [1]: 0.84 nM
half-life [14]: 26 h
logD [16]: 2.46
bioavailability [18]: 98%
Compound: Cc1c(S(=O)(=O)c2ccc(=O)[nH]n2)oc2ccc(Cl)cc12
ED90 (Rattus norvegicus [15]): 0.8 mg/kg
ED90 (Rattus norvegicus [17]): 3 mg/kg

IC50 [1]: 150 nM
Compound: O=c1ccc(S(=O)(=O)c2cc3ccccc3s2)n[nH]1

IC50 [1]: 2200 nM
Compound: O=S(=O)(c1ccc(O)nn1)c1ccccc1-c1ccccc1

IC50 [1]: 5000 nM
Compound: O=c1ccc(S(=O)(=O)c2cc3ccccc3[nH]2)n[nH]1

pKa [19]: > 8
Compound: O=C1NC(=O)[C@@]2(CCOc3ccc(F)cc32)N1 [SORBINIL]

pKa [3]: 3
Compound: O=C(O)Cc1nn(Cc2nc3cc(C(F)(F)F)ccc3s2)c(=O)c2ccccc12 [ZOPOLRESTAT]
ED90 (Rattus norvegicus [6]): 10 mg/kg
ED90 (Rattus norvegicus [8]): 40 mg/kg
inhibition in vivo at 20 mg/kg (Rattus norvegicus [20]): 41%
